Source: publication PMC6136712, “Ex vivo drug sensitivity testing as a means for drug repurposing in esophageal adenocarcinoma” (PLoS ONE, 2018)
Where a name gives a salt, the structure may show the parent alone.

Tests used:
Format in all cases: cell-based, human
[1] = tested on: normal esophageal epithelium cell line EACN42; experiment: FDA library drug sensitivity testing (CellTiter-Glo, 72 h), normal control cells; parameters: key to DSS: modified drug sensitivity score (DSSmod) from dose-response curve fit
Description: The normal esophageal epithelium cell line EACN42 was established in the Capobianco laboratory. The cell lines was derived from human normal epithelium and immortalized using HPV E6-E7.
(§1) Drug sensitivity testing (DST) was performed as described previously. […] Individual drugs were dissolved in 100% DMSO and tested in duplicates starting at a maximal test concentration of 10μM then over a 20,000-fold concentration range to generate dose response curves. Wells with assay buffer containing DMSO served as negative controls. 1000 exponentially growing cells were seeded per well in 384-well micro-titer plates and incubated in the presence of compounds in a humidified environment at 37°C and 5% CO2. After 72 hours of treatment, cell viability was assessed by measuring ATP levels via bioluminescence (CellTiter-Glo, Promega) according to manufactures recommendations. Interpretation of curve parameters was performed according to the modified drug sensitivity scoring (DSSmod) function developed by Swords et al. […] Given in this way, the sDSSmod incorporated information on each drug’s potency, efficacy, effect range and therapeutic index, making it possible to prioritize compounds over multiple parameters using a single numerical metric. […] All calculations and scoring routines are implemented in MatLab and additional curve fitting and statistical analyses are performed in GraphPad prism.

[2] = tested on: EAC42 cells; experiment: FDA library drug sensitivity testing (CellTiter-Glo, 72 h); conditions: EAC42; sDSSmod = DSSmod (patient cells) - DSSmod (normal cells)
Description: (§2) OE33, OE19 and SKGT2 human esophageal adenocarcinoma cell lines were obtained from the European Collection of Cell Culture ([…]). Flo1, EAC42 and EAC47 cells were established in the Capobianco Laboratory. EAC42 and EAC47 human esophageal adenocarcinoma cell lines are derived from patients undergoing surgery at the Miller School of Medicine, University of Miami. The Capobianco laboratory obtained written informed consent from all patients and approval from the Institutional Research Ethics Committee.
as §1

[3] = tested on: OE19 cells; experiment: as above; conditions: sDSSmod = DSSmod (patient cells) - DSSmod (normal cells)
Description: as §2, §1

[4] = tested on: OE33 cells; experiment: as above; conditions: OE33; sDSSmod = DSSmod (patient cells) - DSSmod (normal cells)
Description: as §2, §1

[5] = tested on: SK-GT2 cells; experiment: as above; conditions: SK-GT2; sDSSmod = DSSmod (patient cells) - DSSmod (normal cells)
Description: as §2, §1

[6] = tested on: EAC47 cells; experiment: as above; conditions: EAC47; sDSSmod = DSSmod (patient cells) - DSSmod (normal cells)
Description: as §2, §1

[7] = Homo sapiens, 72 h, EACN42 normal esophageal cells, cell viability (ATP), max test concentration 10μM
[8] = drug sensitivity score, EACN42 normal esophageal cells, 72 h
[9] = EACN42 normal esophageal cells, 72 h, cell viability (ATP), max test concentration 10μM

Molecule | EC50 [1, 7] [nM] | DSS [1, 8] | sDSSmod [2] | sDSSmod [3] | sDSSmod [4] | sDSSmod [5] | EC50 [1, 9] [nM] | sDSSmod [6] | EC50 ([1]; Homo sapiens; EACN42 normal esophageal cells, 72 h, cell viability (ATP), max test concentration 10μM) [nM]
CC(=O)[C@]1(O)Cc2c(O)c3c(c(O)c2[C@@H](O[C@H]2C[C@H](N)[C@H](O)[C@H](C)O2)C1)C(=O)c1ccccc1C3=O [Idarubicin HCl] | 710 | 26.1 | 6.506 | -22.4296 | 15.06 | -17.1644 | – | – | –
C[C@H](NC(=O)Cc1cc(F)cc(F)c1)C(=O)N[C@H](C(=O)OC(C)(C)C)c1ccccc1 [DAPT] | – | 0 | – | – | – | 13.54 | – | – | –
C[C@@H](Oc1cc(-c2cnn(C3CCNCC3)c2)cnc1N)c1c(Cl)ccc(F)c1Cl [Crizotinib] | 8030 | – | – | – | 22.74 | – | – | – | –
Nc1nc(O)c2[nH]nnc2n1 [Azaguanine-8] | – | 2.04 | 6.077 | – | 8.322 | – | – | – | –
COc1cc([C@@H]2c3cc4c(cc3[C@@H](O[C@@H]3O[C@@H]5CO[C@@H](C)O[C@H]5[C@H](O)[C@H]3O)[C@H]3COC(=O)[C@H]23)OCO4)cc(OC)c1O [Etoposide] | > 10000 | 4.68 | 5.049 | – | 6.55 | – | – | – | –
O=c1oc2c(O)c(O)cc3c(=O)oc4c(O)c(O)cc1c4c23 [Ellagic acid] | – | 0 | – | – | 7.542 | – | – | – | –
Bacitracin zinc | – | 0 | – | – | 17.07 | – | – | – | –
Nc1ccn([C@@H]2O[C@H](CO)[C@@H](O)C2(F)F)c(=O)n1 [Gemzar] | – | 16.2 | 17.37 | -11.949 | 11.79 | – | 770 | 10.03 | –
S=c1[nH]cnc2nc[nH]c12 [Mercaptopurine] | > 10000 | 0.05 | 10.48 | – | – | – | – | 10.9 | –
CCc1c2c(nc3ccc(OC(=O)N4CCC(N5CCCCC5)CC4)cc13)-c1cc3c(c(=O)n1C2)COC(=O)[C@]3(O)CC [Irinotecan] | 5110 | 6.99 | – | -6.34 | 5.246 | -5.574 | – | -5.5855 | –
Cc1ccc(C(=O)Nc2ccc(CN3CCN(C)CC3)c(C(F)(F)F)c2)cc1C#Cc1cnc2cccnn12 [Ponatinib] | – | 11.77 | -11.7731 | -11.756 | -6.155 | -11.7711 | – | -11.7731 | 2810
CN(Cc1cnc2nc(N)nc(N)c2n1)c1ccc(C(=O)N[C@@H](CCC(=O)O)C(=O)O)cc1 [Abitrexate, Methotrexate] | 40 | 21.14 | 31.2825 | -21.1435 | 16.69 | – | – | 35.78 | –
O=c1c(-c2ccc(O)cc2)coc2cc(O)cc(O)c12 [Genistein] | > 10000 | 0.04 | – | – | 5.079 | 5.117 | – | – | –
C#Cc1cccc(Nc2ncnc3cc(OCCOC)c(OCCO)cc23)c1.Cl [Desmethyl Erlotinib] | – | 3.34 | – | – | 8.648 | 11.77 | – | – | –
COc1ccccc1OCC(O)CN1CCN(CC(=O)Nc2c(C)cccc2C)CC1 (stereo not drawn) [Ranolazine] | – | 0 | – | – | 25.89 | – | – | – | –
CCc1c2c(nc3ccc(OC(=O)N4CCC(N5CCCCC5)CC4)cc13)-c1cc3c(c(=O)n1C2)COC(=O)[C@]3(O)CC.Cl.O.O.O [Irinotecan HCl Trihydrate] | – | 13.38 | -6.563 | -12.0524 | 12.07 | -7.5553 | 1570 | -6.3823 | –
O=c1[nH]c(=O)n([C@H]2C[C@H](O)[C@@H](CO)O2)cc1F [Floxuridine] | 830 | 4.9 | 40.61 | – | 13.67 | – | – | 35.54 | –
CO[C@H]1C[C@@H]2CC[C@@H](C)[C@@](O)(O2)C(=O)C(=O)N2CCCC[C@H]2C(=O)O[C@H]([C@H](C)C[C@@H]2CC[C@@H](OCCO)[C@H](OC)C2)CC(=O)[C@H](C)/C=C(\C)[C@@H](O)[C@@H](OC)C(=O)[C@H](C)C[C@H](C)/C=C/C=C/C=C/1C [Everolimus] | 9000 | 7.57 | – | – | -5.493 | -5.054 | – | -5.697 | –
O=c1[nH]cc(F)c(=O)[nH]1 [Adrucil] | 920 | 4.47 | – | – | 10.56 | – | – | – | –

Molecule | EC50 [1, 7] [nM] | DSS [1, 8] | sDSSmod [2] | sDSSmod [3] | sDSSmod [4] | sDSSmod [5] | EC50 [1, 9] [nM] | sDSSmod [6] | EC50 ([1]; Homo sapiens; EACN42 normal esophageal cells, 72 h, cell viability (ATP), max test concentration 10μM) [nM]
CNC(=O)CN(CCN(CCN(CC(=O)[O-])CC(=O)NC)CC(=O)[O-])CC(=O)[O-].[Gd+3] [Gadodiamide] | – | 0 | – | – | 29.62 | – | – | – | –
Nc1nc2nc[nH]c2c(=S)[nH]1 [Thioguanine] | 3160 | 4.62 | 9.961 | – | 42.58 | 6.838 | – | 8.364 | –
Nc1nc2[nH]cc(CCc3ccc(C(=O)N[C@@H](CCC(=O)O)C(=O)O)cc3)c2c(=O)[nH]1 [Pemetrexed] | 60 | 16.15 | 14.62 | -15.3102 | 25.32 | – | – | 14.75 | –
CCC(C)(C)C(=O)O[C@H]1C[C@@H](C)C=C2C=C[C@H](C)[C@H](CC[C@@H]3C[C@@H](O)CC(=O)O3)[C@H]21 [Simvastatin] | 3350 | 5.66 | -5.363 | -5.647 | 26.15 | -5.66 | – | -5.66 | –
CN(C)CCOc1ccc(/C(=C(/CCCl)c2ccccc2)c2ccccc2)cc1 [Toremifene Citrate] | – | 0 | – | – | 23.6335 | – | – | – | –
COc1cc2nccc(Oc3ccc(NC(=O)C4(C(=O)Nc5ccc(F)cc5)CC4)cc3)c2cc1OC [Cabozantinib] | – | 0 | – | – | 19.55 | – | – | – | –
COc1cc2c(Nc3ccc(Br)cc3F)ncnc2cc1OCC1CCN(C)CC1 [Vandetanib] | 4460 | 0.13 | – | 7.027 | 8.255 | 7.721 | – | – | –
C=CC(=O)N1CCC[C@@H](n2nc(-c3ccc(Oc4ccccc4)cc3)c3c(N)ncnc32)C1 [Ibrutinib] | – | 0 | – | 31.18 | – | 39.31 | – | – | –
Nc1nc(Cl)nc2c1ncn2[C@H]1C[C@H](O)[C@@H](CO)O1 [Cladribine] | – | 0.13 | 7.959 | – | – | – | – | 5.947 | –
Nc1nc(Cl)nc2c1ncn2[C@@H]1O[C@H](CO)[C@@H](O)[C@@H]1F [Clofarabine] | 70 | 19.89 | -8.024 | -19.554 | 16.0076 | -9.559 | – | -10.1317 | –
Cn1cnc([N+](=O)[O-])c1Sc1ncnc2nc[nH]c12 [Azathioprine] | – | 0.02 | 6.181 | – | – | 5.733 | – | 7.783 | –
Nc1ncn([C@@H]2O[C@H](CO)[C@@H](O)[C@H]2O)c(=O)n1 [Azacitidine] | – | 0 | – | – | 23.96 | – | – | – | –
CCCCCCNC(=O)n1cc(F)c(=O)[nH]c1=O [Carmofur] | 710 | 4.76 | – | – | 12.42 | – | – | – | –
COc1cccc2c1C(=O)c1c(O)c3c(c(O)c1C2=O)C[C@@](O)(C(=O)CO)C[C@@H]3O[C@H]1C[C@H](N)[C@@H](O)[C@H](C)O1 [Epirubicin Hydrochloride] | 1200 | 18.98 | – | -11.4055 | 6.778 | -9.535 | – | – | –
Nc1ccn([C@@H]2O[C@H](CO)[C@@H](O)[C@@H]2O)c(=O)n1 [Cytarabine] | > 10000 | 1.34 | – | – | 6.525 | – | – | – | –
O=S(=O)(O)CCS [Mesna] | – | 0 | – | – | – | 8.021 | – | – | –
NS(=O)(=O)OC[C@@H]1C[C@@H](n2ccc3c(N[C@H]4CCc5ccccc54)ncnc32)C[C@@H]1O [MLN-4924] | > 10000 | 0.51 | 17.05 | – | – | – | – | 10.87 | –
CC(C)c1nc(CN(C)C(=O)N[C@@H](CCN2CCOCC2)C(=O)N[C@H](CC[C@H](Cc2ccccc2)NC(=O)OCc2cncs2)Cc2ccccc2)cs1 [Cobicistat] | – | 0 | – | – | – | 7.685 | – | – | –
